{"source": "patent US20090170759A1", "about": "“NEUROPROTECTIVE PEPTIDES” (priority 2007, published 2009)", "key": {"[1]": {"system": "rat cerebral cortical neurons", "experiment": "Glutamate toxicity assay in primary cortical cultures", "type": "cell-based", "details": "pretreatment 24 h prior to 100 μM glutamate", "source_text": "Dissociated hippocampal and cortical cell cultures were established from embryonic day 18 rat fetuses as previously described (Mattson et al., 1994). Briefly, fetuses were removed via cesarean section from pregnant moms (Sprague-Dawley) anesthetized with halothane according to the AVMA Panel on Euthanasia. Pups were decapitated and the brains were removed and placed in HEPES-buffered Hank's Balanced Salt solution (HBSS; Gibco). The hippocampi and cortices were dissected out and pooled according to tissue-type. Tissue was trypsinized for 15 min (1 mg/ml trypsin-HBSS; Worthington), rinsed with fresh HBSS, incubated in trypsin inhibitor (1 mg/ml; Sigma) for 5 min, rinsed again with fresh HBSS and then triturated in 1 ml fresh HBSS with a fire-polished glass pipette. Dissociated cells were seeded at 30,000 cells/well onto poly-D-lysine coated 96-well plates (Collaborative BioScience). […]\nCortical cells were seeded at 200,000 cells/dish onto polyethylenimine-coated 35 mm culture dishes. […] Cell survival was measured by counting viable cells in each field pre- and post-experimental treatment. […] Data were expressed as percent of control (vehicle; mean±SD)."}, "[2]": {"system": "rat cerebral cortical cultures", "experiment": "Neurite outgrowth assay (MAP2-FITC immunofluorescence), cortical cultures", "type": "cell-based", "source_text": "Dissociated hippocampal and cortical cell cultures were established from embryonic day 18 rat fetuses as previously described (Mattson et al., 1994). Briefly, fetuses were removed via cesarean section from pregnant moms (Sprague-Dawley) anesthetized with halothane according to the AVMA Panel on Euthanasia. Pups were decapitated and the brains were removed and placed in HEPES-buffered Hank's Balanced Salt solution (HBSS; Gibco). The hippocampi and cortices were dissected out and pooled according to tissue-type. Tissue was trypsinized for 15 min (1 mg/ml trypsin-HBSS; Worthington), rinsed with fresh HBSS, incubated in trypsin inhibitor (1 mg/ml; Sigma) for 5 min, rinsed again with fresh HBSS and then triturated in 1 ml fresh HBSS with a fire-polished glass pipette. Dissociated cells were seeded at 30,000 cells/well onto poly-D-lysine coated 96-well plates (Collaborative BioScience). Each well contained 100 μl of Eagle's Minimal Essential Media (MEM; Gibco) supplemented with 26 mM NaHCO3 (Sigma), 56 mM glucose (Sigma), 15 mM KCl (Sigma), 1 mM sodium pyruvate (Sigma), 1.1 mM L-glutamine (Sigma), 10% (v/v) heat-inactivated fetal bovine serum (Hyclone), and 0.001% gentamicin sulfate (Sigma) (pH 7.4). Cells were allowed to attach for 24 h in a humidified 37° C. 5% CO2 incubator before experimental treatment. The culture media was aspirated and exchanged with fresh media every three days.\nTwenty-four hours after plating, cultures were treated with vehicle (PBS+0.1% BSA), 100 ng of various growth factors (brain derived neurotrophic factor (BDNF; Promega), glial-derived neurotrophic factor (GDNF; Promega), nerve growth factor (NGF; Boehringer Mannheim), basic fibroblast growth factor (bFGF; Boehringer Mannheim), insulin-like growth factor-1 (IGF-1; Boehringer Mannheim), neurotrophin-3 (NT3; Calbiochem), neurotrophin-4 (NT4; Calbiochem), ciliary neurotrophic factor (CNTF; Calbiochem), epidermal growth factor (EGF; Calbiochem), vascular endothelial growth factor (VEGF; Calbiochem)), or rhEPO (prepared same as above; 10 fM-10 nM)). Each treatment condition was run in quadruplicate or octuplicate. On the third day in culture, the media was aspirated off and replaced with fresh media and test compound. At one week in culture, the cells were fixed with 10% phosphate-buffered formalin for 15 min, then rinsed with DPBS (Sigma) and placed in blocking serum for 30 min (horse serum; 1:50 dilution in DPBS; Vector Labs). Cultures were rinsed again with DPBS and then incubated in primary antibody for 2 hr (microtubule-associated protein-2 (MAP-2) is a selective marker for dendritic processes; anti-mouse monoclonal (Chemicon); 1:1000 dilution of MAP-2 in antibody diluent (Zymed)). Negative control wells were incubated in antibody diluent alone. Background signal was determined by blank wells (cell-free) incubated with or without antibody. Cultures were rinsed again with DPBS and then placed in fluorescein for 1 hr (FITC; anti-mouse IgG; rat adsorbed; 1:50 dilution in DPBS; Vector Labs). Cultures were rinsed a final time with DPBS and then the plates were read on a Cytofluor 4000 fluorescence plate reader. Neurite outgrowth was expressed as percent change from control (vehicle; mean fluorescence±SD).\nDissociated hippocampal and cortical cell cultures were established from embryonic day 18 rat fetuses as previously described (Mattson et al., 1994). Briefly, fetuses were removed via cesarean section from pregnant moms (Sprague-Dawley) anesthetized with halothane according to the AVMA Panel on Euthanasia. Pups were decapitated and the brains were removed and placed in HEPES-buffered Hank's Balanced Salt solution (HBSS; Gibco). The hippocampi and cortices were dissected out and pooled according to tissue-type. […]"}}, "note": "“Also recorded” adds a separate entry of the source."}
{"substance": "rhEPO: purified, recombinant human EPO (rhEPO), currently formulated and distributed under the trademarks of EPREX, ERYPO, or PROCRIT", "values": [{"measurement": "maximal increase of cell survival over parallel cultures treated with glutamate alone", "setting": "[1]", "result": "approximately 200%"}, {"measurement": "neuronal survival after glutamate (in words)", "setting": "[1]", "result": "significant increase in neuronal survival; also recorded: protects rat cerebral cortical neurons against glutamate toxicity"}, {"measurement": "neurite outgrowth response over control, cortical cultures", "setting": "[2]; Example 3, one week in culture", "result": "15-29%"}, {"measurement": "neurite outgrowth in rat cerebral cortical cultures (in words)", "setting": "[2]; figure legends", "result": "promotes neurite outgrowth"}, {"measurement": "ability to increase neurite outgrowth in cortical cultures compared with known growth factors", "setting": "[2]; growth factors at 100 ng", "result": "greater than or equal to that of known growth factors"}]}
